# Measurements from US20140309310A1 (GACHON UNIVERSITY OF INDUSTRY-ACADEMIC COOPERATION …, priority 2011, published 2014).
# Experiments:
# [1] = tested on: ovariectomy-induced osteoporosis (ovariectomized BALB/c mice); experiment: Whole-body bone mineral density and bone mass by dual energy X-ray absorptiometry (DEXA) in ovariectomized mice; format: in vivo, mouse; details: DDS oral 2 mg/kg from 1 week before to 12 weeks after ovariectomy, whole body DEXA at 12 weeks, P<0.05 vs OVX
# Excerpt: 10-week-old BALB/c mice were subjected to ovariectomy (OVX) to make experimental animal models with osteopenia induced by OVX. […] All the animal studies were approved by the Animal Research Ethical Committee of Seoul National University.
# [2] = tested on: ovariectomy-induced osteoporosis (ovariectomized BALB/c mice); experiment: High-resolution micro-CT imaging of femoral trabecular bone, trabecular thickness and separation in ovariectomized mice; format: in vivo, mouse; details: OVX mice, DDS oral 2 mg/kg
# Description: 10-week-old BALB/c mice were subjected to ovariectomy (OVX) to make experimental animal models with osteopenia induced by OVX. […] All the animal studies were approved by the Animal Research Ethical Committee of Seoul National University. The trabecular bone of femoral region adjacent to the mouse shin was imaged by radiography using high-resolution micro-CT. The right limb of the mice was excised and stored in 10% formalin for one day. Then, the bone tissue was stored in 70% alcohol at 4° C. until use in analysis. The bone tissue was imaged by computer tomography using Skyscan 1076 Desktop X-ray Microtomograph (Skyscan, Belgium) at a tube voltage of 100 kV and an exposure current of 200 μA. For the acquired images, bone mineral density (BMD) and bone volume (BV) were measured using Skyscan CTan ver. 1.5.0 and Shortcut to ANT image analysis program (Skyscan, Belgium), and the acquired images were reconstituted into three-dimensional images. In addition, trabecular thickness (Tb. Th) and trabecular separation (Tb. Sp), which are the indices of morphological microstructures on the micro CT images, were measured, and the results of the measurement are shown in FIG. 3.
# [3] = tested on: osteopenia induced by aging (female C57BL/6J mice); experiment: Whole-body bone mineral density and bone mass by DEXA in mice with osteoporosis induced by aging; format: in vivo, mouse; details: DDS 2 mg/kg over 12 weeks
# Description: The mice were acclimated for 1 week, housed at a temperature of 21±1° C. and a humidity of 60%, and allowed access to food ad libitum.
# Caenorhabditis elegans = details: reported; cited from earlier work
smiles,measurement,setting,value
"Nc1ccc(S(=O)(=O)c2ccc(N)cc2)cc1 [DDS, diaminodiphenylsulfone]",increase in bone mass compared to the positive control group (OVX),[1],9.13%
same,increase in bone mineral density compared to the positive control group (OVX),[1],4.09%
same,microstructure of the bone section (micro-CT three-dimensional image),[2]; femoral trabecular bone,as dense as that of the negative control group
same,trabecular separation (Tb. Sp),[2]; micro-CT of femoral region,levels similar to those of the negative control group
same,trabecular thickness (Tb. Th),[2]; micro-CT of femoral region,levels similar to those of the negative control group
same,"change in bone mass, 8-month-old mice",[3]; female C57BL/6J,no significant change
same,"change in bone mineral density, 8-month-old mice",[3]; female C57BL/6J,no significant change
same,"increase in bone mass, 30-month-old mice",[3]; female mice,9.6%
same,"increase in bone mineral density, 30-month-old mice",[3]; female mice,5.11%
same,increase of life span of Caenorhabditis elegans,Caenorhabditis elegans,20-30%
